In PubChem BioAssay AID850 (SRMLSC, 2007):
The source made the active and inactive calls. How the calls were made is not given here.

Columns and labels:
[1] = concentration-response yeast growth inhibition under permissive conditions, counter-assay for yeast lifespan-shortening chemical project (AID 850); details: Saccharomyces cerevisiae growth inhibition, permissive control, measured here: maximum growth inhibition, stronger effect = higher value;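 further: growth read as optical density after one day of incubation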
[2] = test system: Saccharomyces cerevisiae growth inhibition, permissive control; assay: as above

| SMILES | inhibition ([1]; at 50 µM) | IC50 [2] | also measured |
| --- | --- | --- | --- |
| O=c1cc(-c2ccccc2)[nH]n1-c1nc2ccccc2[nH]1 | 97.3% | 13.3 µM | – |
| O=C(OCn1ncc(Br)c(Br)c1=O)c1ccc(F)cc1 | – | 7.71 µM | inhibition ([1]; at 12.5 µM): 78.7% |
| c1ccc(Cc2nnc3sc(-c4ccc5c(c4)OCCO5)nn23)cc1 | – | > 100 µM (inactive) | inhibition ([1]; at 1.563 µM): 14.5% |
| CCCCCC/C(C)=C1/SC(=S)NC1=O | – | > 100 µM (inactive) | inhibition ([1]; at 12.5 µM): 15.5% |
| CC1(C)C[C@H]2C=C(C=O)[C@]3(C=O)C[C@]3(C)[C@H]2C1 | 100% | 4.38 µM | – |
| CCN1CCN(c2ncnc3c2sc(=S)n3-c2ccccc2)CC1 | – | > 100 µM (inactive) | inhibition ([1]; at 0.195 µM): 15.6% |
| Cc1ccc(-c2cc(-c3ccccc3C)[nH]n2)c(O)c1 | 89.4% | 22.2 µM | – |
| Cc1conc1NC(c1cccs1)c1ccc2cccnc2c1O (centres undefined) | 69.2% | 44.9 µM | – |
| Oc1c(CN2CCN(c3ccc(F)cc3)CC2)cc(Cl)c2cccnc12 | 100% | 12.2 µM | – |
| C=CCNC1=C(Cl)C(=O)c2ccccc2C1=O | – | > 100 µM (inactive) | inhibition ([1]; at 25 µM): 18.3% |
| COc1cc(OC)nc(NC(=O)CS(=O)(=O)c2ccccc2)n1 | 77.3% | 17.4 µM | – |
| Cc1ccc2[nH]c3c(c2c1)CCc1cn[nH]c1-3 | 98.6% | 14.7 µM | – |
| NNC(=O)c1ccc(COc2ccc3c(c2)CCC3)o1 | 95.3% | 15.5 µM | – |
| Nc1[nH]c(=O)ncc1F | 84.8% | 17.5 µM | – |
| Cc1ccc(C(=O)OCn2ncc(Cl)c(Cl)c2=O)cc1 | 85.2% | 36.4 µM | – |
| Cc1ccc(O)c(-c2cc(-c3cccc(F)c3)n[nH]2)c1 | 96.9% | 25 µM | – |
| O=C(O)CSc1cccc[n+]1[O-] | 94.2% | 28.7 µM | – |
| Brc1ccccc1-c1nnc(CSc2nnc3sc4ccccc4n23)o1 | – | > 100 µM (inactive) | inhibition ([1]; at 6.25 µM): 13.3% |
| Oc1c(Br)cc(Br)cc1/C=N/c1nc2c(s1)CCCC2 | 98.5% | 5.27 µM | – |
| Cc1nc2c(c(C)c1C#N)C(=O)c1ccccc1-2 | 16% | > 100 µM (inactive) | – |
| CCOC(=O)C1=Nc2ccccc2C1=[N+]=[N-] | 99.2% | 5.45 µM | – |

| SMILES | inhibition ([1]; at 50 µM) | IC50 [2] | also measured |
| --- | --- | --- | --- |
| Cc1oc(-c2cccs2)nc1CS(=O)CC(=O)NC1CCCCCC1 (centres undefined) | – | > 100 µM (inactive) | inhibition ([1]; at 6.25 µM): 18.9% |
| CC(C)N=c1scc(-c2cccs2)n1/N=C/c1ccc(O)c(O)c1O | – | > 100 µM (inactive) | inhibition ([1]; at 0.195 µM): 2.13% |
| CCOc1cccc(-c2nnc3n2N=C(c2cc(OC)ccc2OC)CS3)c1 | – | > 100 µM (inactive) | inhibition ([1]; at 6.25 µM): 14.8% |
| COc1ccc(CCNC(=O)c2cnn3c(C(F)F)cc(C)nc23)cc1OC | – | > 100 µM (inactive) | inhibition ([1]; at 3.125 µM): -1.3% |
| Cn1cccc1Cc1nnc(SCC(=O)Nc2nccs2)n1CCc1ccccc1 | – | > 100 µM (inactive) | inhibition ([1]; at 6.25 µM): 29% |
| CC1(C)Cc2c(C#N)c(N)sc(=S)c2CO1 | – | > 100 µM (inactive) | inhibition ([1]; at 12.5 µM): 23.1% |
| Cc1ccc2nc3c(nc2c1)-c1ccccc1C3=O | 17% | > 100 µM (inactive) | – |
| C=CCSc1nnc2nc3c(nn12)c1cc(C)ccc1n3CC=C | – | > 100 µM (inactive) | inhibition ([1]; at 25 µM): 16.6% |
| O=C(c1ccc(Cl)cc1)c1c[nH]c(C(=O)C(Cl)(Cl)Cl)c1 | 77.6% | 47.4 µM | – |
| Cc1nc2ccccc2c2nc3ccccc3n12 | 63.9% | 38.5 µM | – |
| CCCc1ccc(Oc2cn[nH]c2-c2ccc(O)c(C)c2O)cc1 | – | 7.32 µM | inhibition ([1]; at 12.5 µM): 101% |
| COc1ccccc1OCC(=O)n1cc(C(=O)c2cc(Cl)cc(Cl)c2O)cn1 | 100% | 4.72 µM | – |
| Cc1cc(O)c(/C=N/Nc2cccc(Cl)c2)c(=O)o1 | 80.8% | 26.7 µM | – |
| OC(CN1CCN(c2ccccn2)CC1)Cn1c2ccc(Cl)cc2c2cc(Cl)ccc21 (centres undefined) | 98.9% | 30.9 µM | – |
| C/C(=N\Nc1nc2c(s1)CCCC2)c1ccccc1 | 99.1% | 28.2 µM | – |
| O=C(Nc1ccc(Cl)cc1)ON=C1CCCC1 | – | 7.46 µM | inhibition ([1]; at 25 µM): 99.4% |
| Cc1cc2nc(C)n3c4ccccc4nc3n2n1 | 63.4% | 35.3 µM | – |
| CCCCN(CCCC)C(=S)N/N=C/c1c(C)[nH]n(-c2ccccc2)c1=O | – | > 100 µM (inactive) | inhibition ([1]; at 0.781 µM): 19.7% |
| Nc1c(Nc2ccccc2)c2ccccc2oc1=O | 47.2% | 47.1 µM | – |
| CCN(CC)N=Nc1[nH]nc2nc(C)cc(C)c12 | 55.1% | 48.6 µM | – |
| C=CCn1c2ccccc2c2nnc(SCN3C(=O)c4ccccc4C3=O)nc21 | – | > 100 µM (inactive) | inhibition ([1]; at 6.25 µM): 12.7% |
